# Measured values: patent publication US20150231093A1, “METHODS AND COMPOSITIONS FOR COUNTERMEASURES AGAINST RADIATION” (THE UNIVERSITY OF CHICAGO, priority 2014, published 2015)
# Columns and labels:
# mouse splenocytes = conditions: i.p. 24 h following 7 Gy; amifostine 400 mg/kg, metformin 250 mg/kg
# [1] = 250 mg/kg i.p. 24 h following 7 Gy, counted 13 days after irradiation
# [2] = Tolerability of the i.p. doses used in mice
# Experimental: For in vivo studies, mice were injected i.p. with a final volume of 0.2 ml for all single and drug combinations used. […] Captopril was injected at a final concentration of 200 mg/kg body weight, MESNA was injected at a final concentration of 300 mg/kg body weight, and NAC was injected at a concentration of 400 mg/kg body weight.
# [3] = test system: SA-NH murine sarcoma cells; test: In vitro cell survival (colony) assay after 4 Gy, SA-NH cells; type: cell-based; conditions: 4 mM, 30 min prior to 4 Gy
# Description: (§1) In Vitro Cell Survival Assay. […] Unirradiated cells served as controls. Immediately following irradiation, cells were counted, diluted, and known numbers seeded into 100-mm tissue culture dishes to allow the development of 50 to 150 colonies per dish. Colonies were stained with 20% crystal violet and scored 12 days after plating.
# [4] = test system: human microvascular endothelial cells (HMEC); test: In vitro cell survival (colony) assay after 4 Gy, HMEC; type: cell-based; conditions: 4 mM, 30 min prior to 4 Gy
# Description: as §1
# [5] = test system: mouse embryo fibroblasts (MEF); test: In vitro cell survival (colony) assay after 4 Gy, MEF; type: cell-based; conditions: 4 mM, 30 min prior to 4 Gy
# Description: as §1
smiles,measurement,setting,value
"CN(C)C(=N)NC(=N)N.Cl [Metformin, 1,1-Dimethylbiguanide hydrochloride]",protection of irradiated animals (in words),mouse splenocytes,significantly protected
same,average number of spleen nodules,[1],18
"O=S(=O)([O-])CCS.[Na+] [MESNA, sodium 2-sulfanylethanesulfonate]",toxicity of dose used,[2]; 300 mg/kg body weight,non-toxic
"NCCCNCCS [WR1065, 2-[(aminopropyl)amino] ethanethiol]",protection ratio,[3],1.6
same,protection ratio,[4],1.8
same,protection ratio,[5],1.9
"C[C@H](CS)C(=O)N1CCC[C@H]1C(=O)O [Captopril, captopril]",toxicity of dose used,[2]; 200 mg/kg body weight,non-toxic
"CC(=O)N[C@@H](CS)C(=O)O [NAC, N-acetyl-cysteine]",toxicity of dose used,[2]; 400 mg/kg body weight,non-toxic
